The results in this text go back to patent US6387889B1, “Medicinal compositions for treating eye diseases” (Yamasa Corporation, priority 1998, dated 2002).

Usually melting point stands for the temperature of the solid-liquid transition. The term LD50 denotes the dose expected to kill half of the subjects tested.

In series [1] the test system is rabbit of normal ocular tension. Description: Test Example 2: effect of lowering ocular tension after instillation of test compound to rabbit of normal ocular tension. Particulars: 0.1% (W/V), 50 μL instilled; for AUC: area under curve of time vs difference in ocular tension between treated eye and eye drop base eye, up to 480 minutes; for Emax: maximum difference in ocular tension between treated eye and eye drop base eye. The series is classed as in vivo, Japanese white male rabbits. As for the experimental part: Compounds shown in Table 1 were used as test compounds. Each compound was dissolved in saline containing polysorbate 80 (hereinafter the saline will be referred to as “eye drop base A”) or in an aqueous solution of boric acid buffer (pH 7.0) containing polysorbate 80 (hereinafter the solution will be referred to as “eye drop base B”) (polysorbate 80 content of each base: 5 mg/mL), to thereby obtain a test solution. The amount of each compound in the resultant solution was 0.1% (W/V). The eye drop bases were employed as a control.
Japanese white male rabbits (Kitayama Labes Co., Ltd.) (weight: 2.1-3.2 kg) were employed in the test. The rabbits were retained in a box-type fixation apparatus and employed in the test.
The ocular tension of each rabbit was measured by use of Model 30 Classic Pneumatonometer (product of Mentor) without anesthesia. Before the ocular tension was measured, 0.4% oxybuprocaine hydrochloride (Benoxil 0.4% eye drop solution, product of Santen Pharmaceutical Co., Ltd.) was instilled to the eyes of each rabbit, to thereby anesthetize the surface of the cornea. The ocular tension of each rabbit was measured several times at regular intervals. After the ocular tension became stable, the ocular tension was measured three times, and the average value was employed as the ocular tension.
A 0.1% solution of each test compound (50 μL) was instilled to one eye of each of the respective rabbits, and simultaneously the eye drop base (50 μL) was instilled to the remaining eye. The ocular tensions of both eyes were measured 60 minutes before instillation of the test compound; 0 minute immediately before instillation; and 30, 60, 90, 120, 150, 180, 240, 300, 360, 420, and 480 minutes after instillation. Two to six rabbits were employed for each test compound. For control, the eye drop base was instilled to both eyes of each respective rabbit, and the ocular tension was measured in a manner similar to that described above.
For each test compound, the effect of lowering ocular tension was evaluated on the basis of the following values: the area under the curve of time versus change in difference between the ocular tension of the eye to which the test compound was instilled and that of the eye to which the eye drop base was instilled (hereinafter the area will be abbreviated as AUC (mmHg·min)); and the maximum value of difference between the ocular tension of the eye to which the test compound was instilled and that of the eye to which the eye drop base was instilled (hereinafter the value will be abbreviated as Emax (mmHg)).

Series [2] has as its system ocular tension in rabbits. As to the kind of experiment: Test Example 1: ocular tension after instillation to rabbits (FIGS. 1 and 2). The series is classed as in vivo, New Zealand white male rabbits. The following applies: 0.03% and 0.1% (W/V) in 15% aqueous dimethyl sulfoxide, 50 μL instilled once; 15-180 minutes after instillation; CGS-21680 0.1% (w/v). As for the experimental part: 2-(1-Octynyl)adenosine, 2-(3-hydroxy-1-propynyl)adenosine, and CGS-21680 [2-((4-(2-carboxyethyl)phenylethyl)amino)adenosine-5′-N-ethyluronamide] were used as test compounds. Each compound was dissolved in a 15% aqueous solution of dimethyl sulfoxide (hereinafter the solution will be referred to as an “eye drop base”), to thereby obtain a test solution. The amounts of 2-(1-octynyl)adenosine and 2-(3-hydroxy-1-propynyl)adenosine were 0.03% (W/V) and 0.1% (W/V), respectively. The amount of CGS-21680 in the resultant solution was 0.1% (w/v). The eye drop base was employed as a control.
New Zealand white male rabbits (Tokyo Jikken Dobutsu) (weight: 2.2-3.1 kg) were employed in the test. […]
The ocular tension of each rabbit was measured by use of an applanation pneumatonometer (Alcon, PTG) without anesthesia. Before the ocular tension was measured, 0.4% oxybuprocaine hydrochloride (Benoxil 0.4% eye drop, product of Santen Pharmaceutical Co., Ltd.) was instilled to the eyes of each rabbit, to thereby anesthetize the surface of the cornea. Before administration of drugs, the ocular tension of each rabbit was measured several times at 15-minute intervals until the ocular tension became stable. After the ocular tension became stable, the ocular tension was measured three times, and the average value was employed as the normal ocular tension. […]

The nature of series [3]: Test Example 3: single oral dose toxicity in dogs. Particulars: both sexes, beagle, in vivo, dog, observed for two weeks, maximum dose. As to the method: To nine-month-old male and female beagle dogs (two for each group), 2-(1-octynyl)adenosine was administered orally at a single dose of 50, 150, or 450 mg/kg.
Series [4] can be described thus: Test Example 3: single oral dose toxicity in rats. Particulars: both sexes, SD, in vivo, rat, observed for two weeks, maximum dose. As to the method:
To six-week-old male and female SD rats (six for each group), 2-(1-octynyl)adenosine was administered orally at a single dose of 521, 729, 1020, 1429, or 2000 mg/kg.

[5] abbreviates: eye drop base B (boric acid buffer pH 7.0 with polysorbate 80).
The mark [6] stands for this setting: eye drop base A (saline with polysorbate 80).

In series [1] (setting [5]), `Nc1nc(C#CC2CCCC2)nc2c1ncn2[C@@H]1O[C@H](CO)[C@@H](O)[C@H]1O` [Compound 11, 2-(2-cyclopentyl-1-ethynyl)adenosine] came in with an AUC of −1532.7 mmHg.min and an Emax of −4.4 mmHg.

With `Nc1nc(C#CCO)nc2c1ncn2[C@@H]1O[C@H](CO)[C@@H](O)[C@H]1O` [Compound 4, 2-(3-hydroxy-1-propynyl)adenosine], the “effect of lowering ocular tension (ΔIOP)” value in series [2] is given as “excellent effect of lowering ocular tension, as compared with CGS-21680”. Further, in series [1] (setting [6]), the AUC is −955.6 mmHg.min and the Emax is reported as −4.3 mmHg.

In the case of `CCNC(=O)[C@H]1O[C@@H](n2cnc3c(N)nc(NCCc4ccc(CCC(=O)O)cc4)nc32)[C@H](O)[C@@H]1O` [CGS-21680, 2-((4-(2-carboxyethyl)phenylethyl)amino)adenosine-5′-N-ethyluronamide, reference compound], in series [1] (setting [6]), the AUC was −508.1 mmHg.min and the Emax is −2.5 mmHg.

In series [1] (setting [5]), `Nc1nc(C#CCC2CCCCC2)nc2c1ncn2[C@@H]1O[C@H](CO)[C@@H](O)[C@H]1O` [Compound 14, 2-(3-cyclohexyl-1-propynyl)adenosine] displayed an AUC of −1053.2 mmHg.min and an Emax of −4.0 mmHg.

In series [1] (setting [6]), `Nc1nc(C#CC(O)c2ccccc2)nc2c1ncn2[C@@H]1O[C@H](CO)[C@@H](O)[C@H]1O` (stereo partly drawn) [Compound 5, 2-(3-hydroxy-3-phenyl-1-propynyl)adenosine] had an AUC of −1185.6 mmHg.min and an Emax of −4.8 mmHg.

In series [1] (setting [6]), `CCCCC#Cc1nc(N)c2ncn([C@@H]3O[C@H](C(=O)NC)[C@@H](O)[C@H]3O)c2n1` [Compound 16, 2-(1-hexynyl)adenosine-4′-methylcarboxamide] showed an AUC of −1838.3 mmHg.min and an Emax of −6.0 mmHg.

As for `Nc1nc(C#CCOC2CCCCC2)nc2c1ncn2[C@@H]1O[C@H](CO)[C@@H](O)[C@H]1O` [Compound 10, 2-(3-cyclohexyloxy-1-propynyl)adenosine], in series [1] (setting [6]), the AUC is listed as −945.9 mmHg.min and the Emax is given as −4.3 mmHg.

In series [1] (setting [5]), `CCCOCCC#Cc1nc(N)c2ncn([C@@H]3O[C@H](CO)[C@@H](O)[C@H]3O)c2n1` [Compound 7, 2-(4-propoxy-1-butynyl)adenosine] returned an AUC of −1828.5 mmHg.min and an Emax of −4.9 mmHg.

Molecule `CCOCC#Cc1nc(N)c2ncn([C@@H]3O[C@H](CO)[C@@H](O)[C@H]3O)c2n1` [Compound 6, 2-(3-ethoxy-1-propynyl)adenosine] gave a melting point of 120 to 127 °C. In series [1] (setting [6]), this molecule showed an AUC of −1538.3 mmHg.min and an Emax of −5.3 mmHg.

In series [1] (setting [5]), `CCOCCCC#Cc1nc(N)c2ncn([C@@H]3O[C@H](CO)[C@@H](O)[C@H]3O)c2n1` [Compound 9, 2-(5-ethoxy-1-pentynyl)adenosine] came in with an AUC of −1117.5 mmHg.min and an Emax of −3.7 mmHg.

In series [1] (setting [5]), `CCCCC#Cc1nc(N)c2ncn([C@@H]3O[C@H](CO)[C@@H](O)[C@H]3O)c2n1` [Compound 1, 2-(1-hexynyl)adenosine] came in with an AUC of −1236.0 mmHg.min and an Emax of −4.6 mmHg.

With `CCCCCCC#Cc1nc(N)c2ncn([C@@H]3O[C@H](CO)[C@@H](O)[C@H]3O)c2n1` [Compound 2, 2-(1-octynyl)adenosine], the “effect of lowering ocular tension (ΔIOP)” value in series [2] is on record as “excellent effect of lowering ocular tension, as compared with CGS-21680”. Moreover, in series [1] (setting [6]), the AUC is given as −1093.5 mmHg.min and the Emax was −4.2 mmHg. Further, the LD50 at 2 weeks in series [3] was at least 450 mg/kg. The molecule further displayed an LD50 at 2 weeks in series [4] of at least 2000 mg/kg.

With `Nc1nc(C#CCC2CCCC2)nc2c1ncn2[C@@H]1O[C@H](CO)[C@@H](O)[C@H]1O` [Compound 13, 2-(3-cyclopentyl-1-propynyl)adenosine], in series [1] (setting [5]), the AUC is given as −1053.9 mmHg.min and the Emax is listed as −5.9 mmHg.

With `Nc1nc(C#CC2CCCCC2)nc2c1ncn2[C@@H]1O[C@H](CO)[C@@H](O)[C@H]1O` [Compound 12, 2-(2-cyclohexyl-1-ethynyl)adenosine], in series [1] (setting [5]), the AUC is recorded as −1670.2 mmHg.min and the Emax is recorded as −6.0 mmHg.

`Nc1nc(C#CCCCCN2C(=O)c3ccccc3C2=O)nc2c1ncn2[C@@H]1O[C@H](CO)[C@@H](O)[C@H]1O` [Compound 3, 2-(6-phthalimidyl-1-hexynyl)adenosine]: in series [1] (setting [6]), the AUC is −1471.0 mmHg.min and the Emax is −6.3 mmHg.

As to `Nc1nc(C#CCCC2CCCC2)nc2c1ncn2[C@@H]1O[C@H](CO)[C@@H](O)[C@H]1O` [Compound 15, 2-(4-cyclopentyl-1-butynyl)adenosine], in series [1] (setting [5]), the AUC is listed as −1086.0 mmHg.min and the Emax is on record as −5.6 mmHg.

On to `CCCCCCCCOCCC#Cc1nc(N)c2ncn([C@@H]3O[C@H](CO)[C@@H](O)[C@H]3O)c2n1` [Compound 8, 2-(4-octoxy-1-butynyl)adenosine], for which, in series [1] (setting [5]), the AUC is listed as −1683.0 mmHg.min and the Emax is on record as −5.4 mmHg.
